Measurements taken from patent US20090123565A9, “Copper-dependent non-traditional pro-inflammatory cytokine export and methods, compositions and kits relating thereto” (Maine Medical Center Research Institute, priority 2001, published 2009).

Tests used:
ceruloplasmin = conditions: cited from earlier work
[1] = rat, in vivo, 10 mg/kg
Procedure: A copper chelator, ammonium tetrathiomolybdate (Sigma Aldrich), was administered daily in a dose of 10 mg/kg. The total daily amount was freshly dissolved into 45 ml water and was dispensed to the rats in the drinking water. To assess the effect of copper chelation on neointimal formation after common carotid artery denudation, TTM was given as follows: TTM administration started 2 weeks before the injury in 6 rats; 1 week before the injury in 6 rats; there was no pre-injury treatment with TTM in 5 rats. All those rats were treated with TTM for 2 weeks after the balloon injury. Five rats, which underwent the surgical procedure and were never treated with TTM, served as controls.

serum ceruloplasmin = assay: Serum ceruloplasmin (surrogate marker of free copper) in rats; format: in vivo, Sprague-Dawley rats; conditions: daily 10 mg/kg TTM within 4 weeks
Procedure: Copper status in mammals treated with TTM cannot be reliably followed by measuring total serum copper level because the chelated copper will still be detected. Serum ceruloplasmin, whose synthesis is directly regulated by the bio-availability of copper to the liver, is a more accurate indicator of free copper and is used as a surrogate marker of free copper status Schosinksy et al., 1974, Clin. Chem. 20:1556-1563. Serum ceruloplasmin was assessed as baseline level before the TTM-treatment, as well as on the day of the injury and on the final day. Blood (0.5 to 1 ml) was obtained from the tail vein after anesthesia was centrifuged for 10 minutes at 2000×G and the serum was frozen at −20° C. until assay. Ceruloplasmin oxidative activity was measured as described previously (Schosinsky et al., 1974, Clin. Chem. 20:1556-1563).

[2] = tested on: balloon-injured rat carotid artery; assay: S100A13, IL1, p40, PS expression in balloon-injured vessel wall (immunohistochemistry); format: in vivo, Sprague-Dawley rats
Procedure: (§1) In order to address the mechanisms underlying the effect of copper chelation on neointima formation, TTM was administered for 2 weeks before the balloon injury and daily after that until the animals were euthanized at the 4th and 7th day after the procedure. Accordingly, TTM-free animals euthanized 4 and 7 days after the injury were used as controls.
To evaluate S100A13, FGF1, p40 and IL-1α expression in balloon-injured arteries, paraffin-embedded specimens from the 4th, 7th and 14th day after the injury were cut into 5-μm cross sections, and mounted on glass slides. These sections were incubated in 10% hydrogen peroxide for 90 minutes to block endogenous peroxidase activity. Nonspecific binding was prevented by preincubating the sections with 5% bovine serum albumin (BSA; Sigma) in PBS. The sections were sequentially incubated with polyclonal rabbit anti-S100A13 antibody at a concentration of 1:200; polyclonal rabbit anti-FGF1 antibody at a concentration of 1:500; monoclonal mouse anti-p40 antibody at a concentration of 1:100; polyclonal rabbit anti-IL-1a antibody at a concentration of 1:50; phosphatidylserine (PS) antibody. After they were washed with PBS, the sections were incubated with anti-rabbit and anti-mouse IgG-conjugated horseradish peroxidase (Biorad) for an additional 30 minutes at room temperature. Each incubation was followed by a wash in PBS. Staining was visualized using the chromogen 0.06% 3,3′-diaminobenzidine/5% hydrogen peroxide in 0.05 mol/L Tris-HCl (pH 7.6). Control sections were incubated with nonimmune rabbit IgG at a concentration of 1:200.

[3] = tested on: balloon-injured rat carotid artery; assay: Neointima formation after balloon injury of rat carotid artery (histomorphometry, I/M ratio); format: in vivo, Sprague-Dawley rats
Description: Seventy-nine Sprague-Dawley male rats (Charles River Laboratories) weighing 350 to 450 grams, at 12-16 weeks of age, were included in the study. All rats in this study were handled according to the animal welfare regulation of the Maine Medical Center Research Institute, and the study protocol has been approved by the Animal Care and Use Committee of that institution. The rats received humane care in accordance with the animal use principles of the American Society of Physiology. All rats were maintained under identical conditions of temperature (21±1° C.), humidity (60±5%), and light/dark cycle, and had free access to normal rat chow.
To assess the effect of time course of copper chelation in relation to the injury on the neointima formation, 5 additional groups of rats were studied. All of them were treated with TTM for 2 weeks before the injury, and then TTM was withheld as follows: at the day of the injury (n=6) as well as 4 days (n-5), 6 days (n=7), 8 days (n=6), and 10 days (n=6) after the balloon denudation.
Rats were anesthetized with an intraperitoneal injection of ketamine (50 mg/kg) and xylazine (2.2 mg/kg). Angioplasty of the carotid artery was performed with a balloon embolectomy catheter as previously described. Briefly, the balloon catheter (2F Fogarty, Edwards Laboratories) was introduced through the left external carotid artery into the aorta, and the balloon was inflated. The vessel was damaged by passing an inflated balloon through the lumen three times. The catheter was rotated when pulling back. At the time of the final experiment, the animals were euthanized after anesthesia. A midline abdominal incision exposing the distal abdominal aorta was made. After retrograde cannulation of the abdominal aorta at its bifurcation with a 18-gauge intravenous catheter, the arterial tree was cleared of blood by perfusion with 100 ml of PBS (pH 7.2), followed by in vivo fixation with either 4% formaldehyde in phosphate-buffered saline (pH 7.2) or acetone/ethanol solution in 1:1 ratio. The entire left and right carotid arteries were harvested, including the aortic arch, innominate artery and left carotid bifurcation, and further immersed in the respective fixative. The injured left common carotid arteries were cut in three sections at least 4 mm long from the proximal, middle and distal part. From each study group, a part from the untreated contra-lateral right common carotid artery (control) was taken as well. The specimens were then dehydrated through a graded ethanol series, and embedded in paraffin for sectioning. Other arteries were not perfusion-fixed but were removed and immediately frozen. Three different segments of the left carotid artery were used for histological, morphometric, and immunohistochemical studies.
Morphometric analysis of the arterial segment was carried out in a blind manner on cross-sections stained with hematoxylin-eosin. For each animal at least 3 sections originating from the proximal, middle and distal segment of the injured vessel were quantitatively measured. Using a computerized digital microscopic planimetry algorithm (Optimas, Version 5.22), the areas within the external elastic lamina (EEL area), the internal elastic lamina (IEL area), and the luminal area were measured. Other areas were calculated as follows: medial area=EEL area−IEL area; neointimal area=IEL area−luminal area; neointima-to-media (I/M ratio=neointimal area/medial area.

[4] = tested on: balloon-injured rat carotid artery; assay: Macrophage infiltration into injured arterial wall (CD11b/MAC1 immunostaining); format: in vivo, Sprague-Dawley rats
Procedure: as §1
Macrophage migration was evaluated by immunostaining with the macrophage-specific monoclonal antibody CD11b (MAC1) in acetone/ethanol fixed sections. To quantitate the extent of macrophage invasion, the area occupied by MAC1-positive cells as a percentage of the total area of the neointima was determined. The number of SMCs in the injured artery was counted at day 4, 7 and 14 by the modified method of Prescott et al. Briefly, the cross-sections were subjected to immunohistostaining against α-smooth muscle actin using a commercially available detection system (DAKO) and counter-stained with hematoxylin. The number of nuclei that were accompanied by α-smooth muscle actin-positive cytoplasm was counted at a magnification of ×40 in 10 independent sections from each rat by an observer in a blind manner.

For `[NH4+].[NH4+].[SH-].[SH-].[S]=[Mo]=[S]` [TTM, ammonium tetrathiomolybdate], the “time to induce copper deficiency” value (ceruloplasmin; humans, safely) is listed as 2-4 weeks, the “ceruloplasmin reduction to” value (ceruloplasmin; patients with cancer, withstood for months and years (Brewer et al., 2000)) is listed as 20 % of baseline and the “effects upon visual inspection of the animals” value [1] is listed as “without detectable effects”. The “ceruloplasmin reduction to” value (serum ceruloplasmin) was 0-20 % of its baseline level, the “S100A13, IL1 and PS staining in the neointima” value ([2]; 4 and 7 days after injury) was “no positive staining was detected” and the IL1 positive staining ([2]; 7 and 14 days after the balloon injury) was “almost complete inhibition”. The “presence of S100A13 compared to the controls” value ([2]; 7 and 14 days after the injury) was “significantly decreased”, the “S100A13, IL1 and PS staining in the neointima” value ([2]; 14 days after the injury) was “only a few cells were positively stained” and the phosphatidylserine flipping ([2]; balloon-injured arteries, controls did show it) was “did not show phosphatidylserine flipping”. For the same compound, the “neointima development, hematoxylin-eosin, vs controls” value ([3]; 4 days after the injury) was “no difference”, the intima/media ratio ([3]; 14 days after balloon injury, TTM 10 mg/kg daily started 1 week before injury, 2 weeks after, n=6, controls 1.76±0.105) was 0.96±0.121 and the intima/media ratio ([3]; 14 days after balloon injury, TTM 10 mg/kg daily started 2 weeks before injury, 2 weeks after, n=6, controls 1.76±0.105) was 0.83±0.006. The intima/media ratio ([3]; 14 days after balloon injury, TTM 10 mg/kg daily started on the day of injury, 2 weeks after, n=5, controls 1.76±0.105) was 1.27±0.04, the “reduction in the neointima formation in the rat carotid artery” value ([3]; TTM administration before and after injury, vs controls) was “up to 53%” and the intima/media ratio ([3]; TTM started 2 weeks before injury, continued 6 days after) was 0.76±0.06. The intima/media ratio ([3]; TTM started 2 weeks before injury, continued 8 days after) was 0.83±0.1, the intima/media ratio ([3]; TTM started 2 weeks before injury, continued 10 days after) was 0.79±0.013 and the intima/media ratio ([3]; TTM started 2 weeks before injury, stopped at the day of the injury) was 1.29±0.19. The “neointima development, hematoxylin-eosin, vs controls” value ([3]; day 7 after the injury) was “more pronounced in the controls”, the “I/M ratio compared to the controls” value ([3]; each TTM regimen, 14 days after balloon injury (FIG. 6E)) was “significant decrease” and the “MAC1 positive cells in controls compared to treated rats” value ([4]; 4 and 7 days after the injury) was “marked increase”. The “macrophages in the neointima vs control group” value ([4]; 4 days after injury) was “not detectably different”, the “macrophages within the arterial wall” value ([4]; any time point after the injury (4 and 7 days)) was “very few macrophages were present” and the macrophages vs controls ([4]; day 7 after injury) was “more pronounced in the controls”.
